Where a SMILES comes first, the peptide text is derived from it. The star is where a group is joined. Cbz = O=C(OCc1ccccc1)*
Assays:
[1] = test system: α1-ATZ mutant antitrypsin produced by human fibroblast cell line CJZ12B; assay: Pulse-chase: disappearance of α1-ATZ from cell lysate and secretion into medium; format: cell-based; conditions: for effect on amount of secreted α1-ATZ / effect on degradation / intracellular retention of α1-ATZ / molecular weight of intracellular and secreted protein / fraction of α1-ATZ secreted: DMJ 1 mM, KIF 0.3 mM; for effect on amount of secreted α1-ATZ / effect on degradation / intracellular retention of α1-ATZ: DIM 1 mM, vs control; for fraction of α1-ATZ secreted: control 0.11; for disappearance of α1-ATZ from the cell lysate vs control / secretion of the 55 kD α1-ATZ into the medium: glucosidase inhibitors, pulse-chase in presence of drug
Procedure: (§1) The human fibroblast cell line CJZ12B which has been transduced with anthotropic recombinant retroviral particles to result in stable production of α1-ATZ mutant antitrypsin (Gross, V., et al., Biochem. J. (1986) supra) is used to produce α1-ATZ. The α1-ATZ mutant produced is labeled by adding 350-400 μCi TRAN^35S label to the medium.
The procedure of Example 1 was repeated except that after the incubation with label, the cells producing α1-ATZ were “chased” for various time intervals still in the presence of drug. At these time intervals, extracellular fluid and cell lysates were clarified, immunoprecipitated and analyzed by 8-10% SDS PAGE as previously described. (Wu, Y., et al., PNAS (1994) supra).
The pulse-chase experiments of Example 2 were repeated with the mannosidase inhibitors DMJ (1 mM) KIF (0.3 mM) and DIM (1 mM). In the presence of DMJ or KIF, the intracellular and secreted protein both have molecular weights of 52 kD. […] The half-life for disappearance of α1-ATZ from the lysate in the control is 0.95 hours and the fraction secreted is 0.11. […] (Control values were slightly different in this latter experiment.) There was no effect of DIM on degradation or secretion.

[2] = test system: α1-ATZ; assay: Cell-free ER degradation of α1-ATZ (reticulocyte lysate with canine pancreatic microsomes); format: biochemical
Procedure: This system was described by Qu, D., et al., J. Biol. Chem. (1996) 271:22791-22795 cited above. In general, reticulocyte lysate cell free system supplemented with canine pancreatic microsomes was programmed with purified α1-ATZ mRNA over 60 minutes at 30° C. The microsomes were then isolated by centrifugation and incubated in a proteolysis-primed lysate at 37° for various time intervals. Aliquots were taken and the samples resolved on 10% SDS-PAGE gels.
To test the effect of drug, the reaction mixture was pre-incubated for 10 minutes at 30° C. in the absence of CST or in the presence of 100 μg/ml CST. α1-ATZ mRNA and ^35S-labeled methionine were added and translation conducted for 60 minutes at 30° C. in the absence or presence of CST. After co-translational translocation of α1-ATZ into the microsomes, the microsomes were harvested by centrifugation and the pellets suspended in […] of proteolysis-primed lysate with or without CST. The samples were incubated at 37° C. and aliquots analyzed at various time intervals.

[3] = test system: neutrophil elastase; assay: Complex formation of secreted α1-ATZ with neutrophil elastase; format: cell-based; conditions: medium at 6 hours of chase, KIF (0.3 mM), DMJ (1 nM) or CST (100 μg/ml); for amount of elastase at which complexes start to form / amount of elastase for complete conversion to complexes: 30 minutes at 37°
Procedure: Both HepG2 cells, secreting wild type antitrypsin, and CJZ12B cells, which secrete the mutant, were subjected to pulse-chase conditions as described, for example, in Example 2. The mutant-secreting cells were treated with KIF (0.3 mM) DMJ (1 nM) or CST (100 μg/ml). The extracellular media from the 6 hours time point of the chase period were harvested and then incubated for 30 minutes at 37° with neutrophil elastase at various concentrations. The reaction mixtures were then immunoprecipitated with anti-antitrypsin and resolved by SDS PAGE.

[4] = test system: α1-ATZ mutant antitrypsin produced by human fibroblast cell line CJZ12B; assay: Electrophoretic mobility of immunoprecipitated α1-ATZ from drug-treated, 35S-labeled cells (SDS-PAGE); format: cell-based; conditions: for migration of α1-ATZ compared to the 52 kD trimmed form: mannosidase inhibitors, tested as in Example 1; for migration of precipitated α1-ATZ / estimated molecular weight of the protein from treated cultures: 100 μg/ml CST or 3 mM MDNJ; for migration of precipitated α1-ATZ: 1 hour preincubation, 1.5 hours label, vs control medium; for estimated molecular weight of the protein from treated cultures: untreated form 52 kD
Text: as §1
It has previously been shown that α1-ATZ mutant migrates at 52 kD in electrophoretic studies. It is believed this form is an intermediate with high mannose-type oligosaccharide side chains (Wu, Y., et al., PNAS (1994) supra). The α1-ATZ producing cell line of Preparation A was incubated for 1 hour in control serum-free medium or in serum-free medium supplemented with 100 μg/ml CST or 3 mM MDNJ. The cells were then labeled with TRAN^35S for 1.5 hours maintaining the presence of the drugs. The antitrypsin fraction was immunoprecipitated from the cell lysates, resolved by 10% SDS-PAGE and detected with the Phosphorimager system. […] The estimated molecular weight of the protein from treated cultures is 55 kD.
The effect of the mannosidase inhibitors KIF (mannosidase I), DMJ (mannosidase I and II) and an additional inhibitor, DIM (mannosidase II) on electrophoretic mobility was tested as described in Example 1.

[5] = test system: α1-ATZ secreted by CJZ12B cells; assay: endoH / PNGaseF digestion of α1-ATZ secreted by treated CJZ12B cells; format: cell-based, human; conditions: product of drug-treated CJZ12B cells
Text: Wild type α1-AT is secreted from HepG2 cells with a molecular weight of 55 kD. It is resistant to digestion with endoH but is cleaved to a 46 kD polypeptide by PNGaseF.
EndoH is glycolytic only for high mannose […] carbohydrate glycosylation chains; PNGaseF cleaves any carbohydrate and would be expected to degrade the glycosylation side chains of any glycoprotein.
This 55 kD α1-ATZ polypeptide was cleaved to 46 kD by PNGaseF.
The peptide secreted by KIF treated CJZ12B cells was cleaved both by endoH and PNGaseF to a 46 kD product.

[6] = test system: α1-ATZ complexes with calnexin and GRP78/BiP; assay: Co-immunoprecipitation of α1-ATZ with chaperones from microsomes; format: biochemical
Procedure: The procedure was repeated with 100 μg/ml CST present throughout and the microsomes were homogenized under nondenaturing conditions and immunoprecipitated with antibodies to calnexin and to a different chaperone, GRP78/BiP. The 52 kD form in the control was precipitated by anti-calnexin but the complex disappears between 30-45 minutes of the chase period. […] On the other hand, the 55 kD protein characteristic of the sample which includes CST is precipitated by anti-GRP78/BiP. This complex, too, disappears rapidly.

[7] = 100 μg/ml CST present throughout

SMILES: OC[C@@H](O)[C@@H]1NC[C@@H](O)[C@H]1O [DIM]
- effect on amount of secreted α1-ATZ [1]: no effect
- effect on degradation / intracellular retention of α1-ATZ [1]: no effect

SMILES: CC(C)C[C@@H](C=O)NC(=O)[C@H](CC(C)C)NC(=O)[C@H](CC(C)C)NC(=O)OCc1ccccc1 [MG132] (Cbz-Leu-Leu-Leu-aldehyde)
- effect on alternate degradation pathway of untrimmed α1-ATZ ([2]; CST present): inhibited

SMILES: OC[C@H]1NC[C@@H](O)[C@@H](O)[C@@H]1O [DMJ, deoxymannojirimycin]
- molecular weight of intracellular and secreted protein [1]: 52 kD
- effect on amount of secreted α1-ATZ [1]: increase
- effect on degradation / intracellular retention of α1-ATZ [1]: retained intracellularly for a longer period of time
- fraction of α1-ATZ secreted [1]: 0.28
- molecular weight of α1-ATZ-elastase complexes [3]: 70 kD
- amount of elastase at which complexes start to form [3]: 0.5 µg
- amount of elastase for complete conversion to complexes [3]: 2 µg
- migration of α1-ATZ compared to the 52 kD trimmed form [4]: somewhat slower migration

SMILES: O=C1N[C@@H]2[C@@H](O)[C@@H](O)[C@H](O)[C@@H](CO)N2C1=O [KIF, kifunensine]
- molecular weight of intracellular and secreted protein [1]: 52 kD
- effect on amount of secreted α1-ATZ [1]: increase
- effect on degradation / intracellular retention of α1-ATZ [1]: retained intracellularly for a longer period of time
- fraction of α1-ATZ secreted [1]: 0.31
- molecular weight of α1-ATZ-elastase complexes [3]: 70 kD
- amount of elastase at which complexes start to form [3]: 0.5 µg
- amount of elastase for complete conversion to complexes [3]: 2 µg
- molecular weight of product after PNGaseF cleavage [5]: 46 kD
- molecular weight of product(s) after endoH treatment [5]: 46 kD
- sensitivity of secreted α1-ATZ to endoH [5]: cleaved
- migration of α1-ATZ compared to the 52 kD trimmed form [4]: somewhat slower migration

SMILES: CN1C[C@H](O)[C@@H](O)[C@H](O)[C@H]1CO [MDNJ, N-methyldeoxynojirimycin]
- disappearance of α1-ATZ from the cell lysate vs control [1]: accelerated over control
- secretion of the 55 kD α1-ATZ into the medium [1]: no secretion
- migration of precipitated α1-ATZ [4]: migrates more slowly
- estimated molecular weight of the protein from treated cultures [4]: 55 kD

SMILES: O[C@H]1[C@H](O)[C@@H](O)CN2CC[C@H](O)[C@H]12 [CST, castanospermine]
- newly synthesized 55 kD protein secreted into the medium ([1]; 100 μg/ml CST, by 6 hours of chase, untreated control 17%): 31%
- time at which 55 kD protein disappears from the cell lysate ([1]; 100 μg/ml CST, chase): 2 to 4 h
- disappearance of α1-ATZ from the cell lysate vs control [1]: same rate
- secretion of the 55 kD α1-ATZ into the medium [1]: increase
- time at which the 55 kD form begins to disappear ([2]; 100 μg/ml CST from pre-incubation on, 37° C., control 15-30 minutes): > 30 min
- time at which disappearance is complete ([2]; 100 μg/ml CST from pre-incubation on, 37° C., control 30-45 minutes): 45 to 90 min
- disappearance rate of the 52 kD form ([2]; CST added only during the chase period): same disappearance rate as the control
- precipitation of 55 kD α1-ATZ by anti-GRP78/BiP [6, 7]: precipitated
- precipitation of α1-ATZ by anti-calnexin [6, 7]: Little if any precipitate
- total α1-ATZ co-precipitated with the anti-GRP78/BiP antibody ([6]; CST present, estimated): 5-10%
- molecular weight of α1-ATZ-elastase complexes [3]: 75 kD
- amount of elastase at which complexes start to form [3]: 0.5 µg
- amount of elastase for complete conversion to complexes [3]: 2 µg
- molecular weight of product after PNGaseF cleavage [5]: 46 kD
- molecular weight of product(s) after endoH treatment [5]: 46 kD, 48 kD, and 52 kD
- sensitivity of secreted α1-ATZ to endoH [5]: partial sensitivity
- migration of precipitated α1-ATZ [4]: migrates more slowly
- estimated molecular weight of the protein from treated cultures [4]: 55 kD

From patent US6656912B2, “Methods to treat α1-antitrypsin deficiency” (Washington University in St. Louis, priority 2000, dated 2003)
